This note sets out measurements from patent US20060161001A1, “Substituted heterocyclic compounds and methods of use” (Amgen Inc., priority 2004, published 2006).

The structures appear in SMILES notation. Where only a bound is given, the exact number is not on record here.

The assay has as its system LPS induced TNF release. The experiment in a line: THP1 cell assay (LPS induced TNF release). Format: cell-based. As to conditions: Homo sapiens, THP-1; THP1 cells, LPS induced TNF-α secretion, 3 h at 37° C. How it is done:
Lipopolysaccharide-Activated THP1 Cell TNF Production Assay
THP1 cells are resuspended in fresh THP1 media (RPMI 1640, 10% heat-inactivated FBS, 1XPGS, 1XNEAA, plus 30 μM OME) at a concentration of 1E6/mL. One hundred microliters of cells per well are plated in a polystyrene 96-well tissue culture. One microgram per mL of bacterial LPS is prepared in THP1 media and is transferred to the wells. Test compounds are dissolved in 100% DMSO and are serially diluted 3-fold in a polypropylene 96-well microtiter plate (drug plate). HI control and LO control wells contain only DMSO. One microliter of test compound from the drug plate followed by 10 μL of LPS are transferred to the cell plate. The treated cells are induced to synthesize and secrete TNF-α at 37° C. for 3 h. Forty microliters of conditioned media are transferred to a 96-well polypropylene plate containing 110 μL of ECL buffer (50 mM Tris-HCl pH 8.0, 100 mM NaCl, 0.05% Tween 20, 0.05% NaN3 and 1% FBS) supplemented with 0.44 nM MAB610 monoclonal Ab (R&D Systems), 0.34 nM ruthenylated AF210NA polyclonal Ab (R&D Systems) and 44 μg/mL sheep anti-mouse M280 Dynabeads (Dynal). After a 2 h incubation at RT with shaking, the reaction is read on the ECL M8 Instrument (IGEN Inc.). A low voltage is applied to the ruthenylated TNF-α immune complexes, which in the presence of TPA (the active component in Origlo), results in a cyclical redox reaction generating light at […]. The amount of secreted TNF-α in the presence of compound compared with that in the presence of DMSO vehicle alone (HI control) is calculated using the formula: % control (POC)=(cpd−average LO)/(average HI−average LO)*100. Data (consisting of POC and inhibitor concentration in μM) is fitted to a 4-parameter equation (y=A+((B−A)/(I+((x/C)ˆD))), where A is the minimum y (POC) value, B is the maximum y (POC), C is the x (cpd concentration) at the point of inflection and D is the slope factor) using a Levenburg-Marquardt non-linear regression algorithm.
In the case of `NC1CCC(Nc2nccc(N3CCCc4ccc(-c5ccccc5)nc43)n2)CC1` [Example 88, (1R,4R)-N^1-(4-(7-Phenyl-3,4-dihydro-1,8-naphthyridin-1(2H)-ylpyrimidin-2-yl)-cyclohexane-1,4-diamine], the half-inhibitory concentration (IC50) (usually the concentration that inhibits the measured activity by half) is at most 20 µM.

`CC(=O)N1CCC(Nc2nccc(N3CCOc4cnc(-c5ccccc5)nc43)n2)CC1` [Example 107, 1-(4-(4-(2-Phenyl-6,7-dihydropyrimido[5,4-b][1,4]oxazin-8-yl)pyrimidin-2-yl-amino)piperidin-1-yl)ethanone] registered an IC50 of at most 20 µM.

The molecule `CN(C)CC(C)(C)CNc1nccc(N2CCCc3ccc(-c4ccccc4)nc32)n1` [Example 51, N-(3-(Dimethylamino)-2,2-dimethylpropyl)-4-(7-phenyl-3,4-dihydro-1,8-naphthyridin-1(2H)-yl)pyrimidin-2-amine] had an IC50 of at most 20 µM.

`CC(Cc1cccc(CO)c1)Nc1nccc(N2CCCc3cnc(-c4ccccc4)cc32)n1` (stereo not shown) [Example 4, (3-(2-(4-(7-Phenyl-3,4-dihydro-1,6-naphthyridin-1(2H)-yl)pyrimidin-2-ylamino)-propyl)phenyl)methanol] came in with an IC50 of at most 20 µM.

Molecule `O=C(CC(F)(F)F)NC1CCC(Nc2nccc(N3CCCc4cnc(-c5ccccc5)cc43)n2)CC1` [Example 36, 3,3,3-Trifluoro-N-((1R,4R)-4-(4-(7-phenyl-3,4-dihydro-1,6-naphthyridin-1(2H)-yl)-pyrimidin-2-ylamino)cyclohexyl)propanamide] had an IC50 of at most 20 µM.

In the case of `c1ccc(-c2ncc3c(n2)N(c2ccnc(NC4CCNCC4)n2)CCO3)cc1` [Example 106, 4-(2-Phenyl-6,7-dihydropyrimido[5,4-b][1,4]oxazin-8-yl)-N-(piperidin-4-yl)-pyrimidin-2-amine], the IC50 was at most 20 µM.

For the molecule `C[C@@H](Cc1cccc([C@@H](C)N)c1)Nc1nccc(N2CCCc3cnc(-c4ccccc4)cc32)n1` [Example 10, N-((S)-1-(3-((R)-1-Aminoethyl)phenyl)propan-2-yl)-4-(7-phenyl-3,4-dihydro-1,6-naphthyridin-1(2H)-yl)pyrimidin-2-amine], the concentration for half-maximal inhibition (IC50) was at most 20 µM.

Turning to `CC(=O)c1cc2c(nc1-c1ccccc1)N(c1ccnc(NCCc3ccccc3)n1)CCC2` [Example 72, 1-(8-(2-(Phenethylamino)pyrimidin-4-yl)-2-phenyl-5,6,7,8-tetrahydro-1,8-naphthyridin-3-yl)ethanone], the IC50 was at most 20 µM.

Molecule `CCOC(=O)c1cc2c(nc1-c1ccccc1)N(c1ccnc(NC(C)Cc3cccc(CO)c3)n1)CCC2` (stereo not shown) [Example 79, Ethyl 8-(2-(1-(3-(hydroxymethyl)phenyl)propan-2-ylamino)pyrimidin-4-yl)-2-phenyl-5,6,7,8-tetrahydro-1,8-naphthyridine-3-carboxylate] displayed an IC50 of at most 20 µM.

On to `CC(=O)N1CCC(Nc2ncc(F)c(N3CCCc4cnc(-c5ccccc5)cc43)n2)CC1` [Example 26, 1-(4-(5-Fluoro-4-(7-phenyl-3,4-dihydro-1,6-naphthyridin-1(2H)-yl)pyrimidin-2-yl-amino)piperidin-1-yl)ethanone], for which the 50% inhibitory concentration (IC50) is at most 20 µM.

`N[C@H]1CC[C@H](Nc2nccc(N3CCOc4cnc(-c5ccccc5)nc43)n2)CC1` [Example 102, (1R,4R)-N^1-(4-(2-Phenyl-6,7-dihydropyrimido[5,4-b][1,4]oxazin-8-yl)pyrimidin-2-yl)cyclohexane-1,4-diamine] displayed a half-maximal inhibitory concentration (IC50) of at most 20 µM.

Turning to `COCc1cc2c(nc1-c1ccccc1)N(c1ccnc(NCCc3ccccc3)n1)CCC2` [Example 68, 4-(6-(Methoxymethyl)-7-phenyl-3,4-dihydro-1,8-naphthyridin-1(2H)-yl)-N-phenethylpyrimidin-2-amine], the IC50 was at most 20 µM.

`O=C(O)c1cc2c(nc1-c1ccccc1)N(c1ccnc(NCCc3ccccc3)n1)CCC2` [Example 69, 8-(2-(Phenethylamino)pyrimidin-4-yl)-2-phenyl-5,6,7,8-tetrahydro-1,8-naphthyridine-3-carboxylic acid] returned an IC50 of at most 20 µM.

Turning to `Nc1cc2c(nc1-c1ccccc1)N(c1ccnc(NCCc3ccccc3)n1)CCC2` [Example 81, 8-(2-(Phenethylamino)pyrimidin-4-yl)-2-phenyl-5,6,7,8-tetrahydro-1,8-naphthyridin-3-amine], the IC50 was at most 20 µM.

In turn, `CC(=O)N1CCC(Nc2nccc(N3CCCc4ncc(-c5ccccc5)cc43)n2)CC1` [Example 32, 1-(4-(4-(7-Phenyl-3,4-dihydro-1,5-naphthyridin-1(2H)-yl)pyrimidin-2-ylamino)-piperidin-1-yl)ethanone] showed an IC50 of at most 20 µM.

The molecule `C[C@@H](Cc1cccc(C(C)(C)N)c1)Nc1nccc(N2CCCc3ncc(-c4ccccc4)cc32)n1` [Example 29, (S)-N-(1-(3-(2-Aminopropan-2-yl)phenyl)propan-2-yl)-4-(7-phenyl-3,4-dihydro-1,5-naphthyridin-1(2H)-yl)pyrimidin-2-amine] gave an IC50 of at most 20 µM.

`NCC(=O)N1CCC(Nc2nccc(N3CCCc4cnc(-c5ccccc5)cc43)n2)CC1` [Example 13, 2-Amino-1-(4(4-(7-phenyl-3,4-dihydro-1,6-naphthyridin-1(2H)-yl)pyrimidin-2-yl-amino)piperdin-1-yl)ethanone] returned an IC50 of at most 20 µM.

Take `CC(Cc1cccc(CO)c1)Nc1nccc(N2CCCc3ccc(-c4ccccc4)nc32)n1` (stereo not shown) [Example 48, (3-(2-(4-(7-Phenyl-3,4-dihydro-1,8-naphthyridin-1(2H)-yl)pyrimidin-2-yl-amino)propyl)phenyl)methanol]: the IC50 was at most 20 µM.

In the case of `CC(=O)N1CCC(Nc2nccc(N3CCCc4cnc(-c5ccccc5)cc43)n2)CC1` [Example 9, 1-(4-(4-(7-Phenyl-3,4-dihydro-1,6-naphthyridin-1(2H)-yl)pyrimidin-2-ylamino)-piperidin-1-yl)ethanone], the IC50 was at most 20 µM.

`CC(C)NC1CCC(Nc2nccc(N3CCCc4ccc(-c5ccccc5)nc43)n2)CC1` [Example 89, (1R,4R)-N^1-Isopropyl-N^4-(4-(7-phenyl-3,4-dihydro-1,8-naphthyridin-1(2H)-yl)pyrimidin-2-yl)cyclohexane-1,4-diamine] showed a 50% inhibitory concentration (IC50) of at most 20 µM.

Regarding `O=C(C[C@@H](Cc1ccccc1)Nc1nccc(N2CCCc3cnc(-c4ccccc4)cc32)n1)N1CCOCC1` [Example 20, (R)-1-Morpholino-4-phenyl-3-(4-(7-phenyl-3,4-dihydro-1,6-naphthyridin-1(2H)-yl)pyrimidin-2-ylamino)butan-1-one], the concentration for half-maximal inhibition (IC50) was at most 20 µM.

For the molecule `CNCc1cc2c(nc1-c1ccccc1)N(c1ccnc(NCCc3ccccc3)n1)CCC2` [Example 70, 4-(6-((Methylamino)methyl)-7-phenyl-3,4-dihydro-1,8-naphthyridin-1(2H)-yl)-N-phenethylpyrimidin-2-amine], the half-inhibitory concentration (IC50) was at most 20 µM.

In turn, `CC(C)(C)OC(=O)N1CCC(Nc2nccc(N3CCCc4ncc(-c5ccccc5)cc43)n2)CC1` [Example 30, tert-Butyl-4(7-phenyl-3,4-dihydro-1,5-naphthylridin-1(2H)-pyrimidin-2-ylamino)-piperidine-1-carboxylate] registered an IC50 of at most 20 µM.

As to `CC(C)(CN)Nc1nccc(N2CCCc3cnc(-c4ccccc4)cc32)n1` [Example 41, N-(1-Amino-2-methylpropan-2-yl)-4-(7-phenyl-3,4-dihydro-1,6-naphthyridin-1(2H)-yl)pyrimidin-2-amine], the IC50 was at most 20 µM.

Turning to `CC(C)(C)OC(=O)N1CCC(Nc2nccc(N3CCCc4ccc(-c5ccccc5)nc43)n2)CC1` [Example 54, tert-Butyl 4-(4-(7-phenyl-3,4-dihydro-1,8-naphthyridin-1(2H)-yl)pyrimidin-2-yl-amino)piperidine-1-carboxylate], the IC50 was at most 20 µM.

On to `C[C@@H](Cc1cccc([C@@H](C)N)c1)Nc1nccc(N2CCCc3ccc(-c4ccccc4)nc32)n1` [Example 91, N-((S)-1-(3-((R)-1-Aminoethyl)phenyl)propan-2-yl)-4-(7-phenyl-3,4-dihydro-1,8-naphthyridin-1(2H)-yl) pyrimidin-2-amine], for which the IC50 is at most 20 µM.

`Cc1cc(N2CCCc3ccc(-c4ccccc4)nc32)nc(NC2CCN(C(=O)OC(C)(C)C)CC2)n1` [Example 60, tert-Butyl 4-(4-methyl-6-(7-phenyl-3,4-dihydro-1,8-naphthyridin-1(2H)-yl)-pyrimidin-2-ylamino)piperidine-1-carboxylate] displayed a 50% inhibitory concentration (IC50) of at most 20 µM.

In turn, `c1ccc(CCNc2nccc(N3CCCc4cnc(-c5ccccc5)cc43)n2)cc1` [Example 3, N-Phenethyl-4-(7-phenyl-3,4-dihydro-1,6-naphthyridin-1(2H)-yl)pyrimidin-2-amine] gave a half-inhibitory concentration (IC50) of at most 20 µM.
